Measurements: US7786152B2, “Compound” (priority 2002, dated 2010)

Target: T1, Human 11βHSD1 (Homo sapiens, UniProt P28845)
T1 construct: the enzyme source, native hepatic enzyme compared to recombinant enzyme; tissue XenoTech H0610/Lot 0210078; host or cells: human hepatic microsomes
Test: 11β HSD1 cortisol radioimmunoassay (RIA) with human hepatic microsomes
Assay type: biochemical
Conditions: read-out: % inhibition of Human 11βHSD1 @ 10 μM
Protocol: Biological Assay Development Using Human 11β-Hydroxysteroid Dehydrogenase Type 1. Standard Operating Procedure for the 11β-Hydroxysteroid Dehydrogenase Type 1 Cortisol Radioimmunoassay. 11β HSD1 Cortisol RIA
Enzyme assay buffer: 30 mM Tris-HCL, pH 7.2 containing 1 mM EDTA
Antibody binding buffer: 50 mM Tris-HCL, pH 8, containing 0.1 M NaCl and 0.1% gelatin
Dilute into assay buffer 1 in 25. Also dilute neat DMSO 1 in 25 into assay buffer for controls.
Dilute this 1 in 50 into assay buffer.
Prepare NADPH as a 1.8 mg/ml solution in assay buffer.
Mix these 3 solutions 1:1:1 to make a solution of sufficient volume for 25 μl additions to each sample. Add 0.5 μCi tritiated cortisone per 25 μl and mix the solution well.
Microsome preparation: Dilute stock 20 mg/ml solution 1 in 100 with assay buffer.
Dextran coated charcoal preparation: Make a 20 mg/ml solution in antibody binding buffer and chill on ice.
Enzyme assay: To a u-bottom polypropylene 96 well plate add:
25 μl compound dilution or diluted DMSO to controls, NSB's and blanks
10 μl 1 mM GA in DMSO (enzyme stop solution) to blanks
25 μl substrate mixture to all samples
50 μl diluted microsomes to all samples
Incubate plate for 30 min at 37° C. shaking
Add 10 μl enzyme stop solution to all wells except the blanks
Add 100 μl antibody solution to all wells except the NSB's, add antibody binding buffer to these wells
Incubate at 37° C. for 1 h
Chill plate on ice for 15 min
Add 50 μl/well charcoal solution and mix with an 8-channel pipette (4-5 aspirations)
Centrifuge at 4° C., 2000×g for 15 min
Transfer 100 μl supernatant into an Optiplate, also add 25 μl substrate mixture to 2 empty wells to indicate counting efficiency
Add 200 μl Microscint-40 to all wells and count on a Topcount
The 11β HSD1 enzyme assay was carried out following the standard operating procedure described above in u-bottom polypropylene 96 well plates or 1.5 ml Eppendorf tubes as indicated for each experiment. Subsequent to stopping the enzyme reaction, 100 μl antibody prepared in buffer 3 unless otherwise indicated was added to test samples and 100 μl buffer 3 was added to the NSB samples. The samples were incubated for 1 hour at 37° C. and the chilled on ice for 15 mins. Dextran coated charcoal (50 μl/sample) prepared to the indicated concentration in buffer 3 was added and the samples were mixed (vortex for tubes and aspiration 5 times with an 8-channel pipette for 96 well plates) and chilled for a further 10 min. The samples were centrifuged at 2000×g for 15 min at 4° C. to pellet the charcoal. Aliquots of the supernatant (100 μl) were transferred to an Optiplate and counted on the Topcount in 150-200 μl Microscint 40. In some experiments, aliquots of supernatant were transferred to scintillation vials and counted on the Tricarb LSC in 5 ml Ultima Gold scintillant.
Substrate saturation was examined. The enzyme assay was carried out exactly described in the methods section, in Buffer 3 with 10 μg/well microsomal protein and with [cold cortisone] as indicated. [3H]-cortisone was 0.5 μCi/sample throughout. The reaction was stopped after 30 min by the addition of 10 μl stop solution. The RIA was carried out exactly as indicated in the methods section.
It is reported that DMSO can both increase and reduce microsomal enzyme activity, depending on the concentration, presumably due to effects on the microsomal membranes.

T1 sequence (P28845 whole entry): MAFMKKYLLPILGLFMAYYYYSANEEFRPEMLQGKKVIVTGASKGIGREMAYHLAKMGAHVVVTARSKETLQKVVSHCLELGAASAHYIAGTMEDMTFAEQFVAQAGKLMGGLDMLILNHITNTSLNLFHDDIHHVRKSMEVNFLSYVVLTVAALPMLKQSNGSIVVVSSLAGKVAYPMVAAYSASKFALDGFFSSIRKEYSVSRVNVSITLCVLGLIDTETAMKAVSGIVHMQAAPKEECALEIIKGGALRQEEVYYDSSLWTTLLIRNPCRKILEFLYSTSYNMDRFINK

SMILES | inhibition at 10 µM
CCCc1ccc(S(=O)(=O)N(c2ccc3sc(C)nc3c2Cl)S(=O)(=O)c2ccc(CCC)cc2)cc1 [compound 995] | 68%
Cc1[nH]c2ccc(NS(=O)(=O)c3cccc(Cl)c3C)cc2c1C [compound 1018] | 66%
Cc1c(Cl)cccc1S(=O)(=O)Nc1ccc2nc(C)n(C)c2c1 [compound 975] | 45%
CCN1CCc2cc(NS(=O)(=O)c3cccc(Cl)c3C)ccc21 [compound 987] | 62%
Cc1nc2c(Cl)c(NS(=O)(=O)c3cccc(Cl)c3C)ccc2s1 [compound 992] | 61%
Cc1nc2ccc(C)c(NS(=O)(=O)c3cccc(Cl)c3C)c2s1 [compound 1021] | 54%
Cc1c(Cl)cccc1S(=O)(=O)Nc1ccc2cc[nH]c2c1 [compound 982] | 53%
Cc1nc2cc(CNS(=O)(=O)c3cccc(Cl)c3C)ccc2s1 [compound 1029] | 78%
Cc1[nH]c2ccc(NS(=O)(=O)c3cc(Cl)ccc3Cl)cc2c1C [compound 1019] | 61%
Cc1nc2cc(C)c(N(S(=O)(=O)c3cccc(Cl)c3C)S(=O)(=O)c3cccc(Cl)c3C)cc2s1 [compound 997] | 51%
Cc1c(Cl)cccc1S(=O)(=O)N(C)c1ccc2c(c1)sc(=O)n2C [compound 831] | 28%
Cc1nc2c(NS(=O)(=O)c3cccc(Cl)c3C)c(C)ccc2s1 [compound 996] | 63%
Cc1nc2cc(C)c(NS(=O)(=O)c3cccc(Cl)c3C)cc2s1 [compound 998] | 58%
Cc1nc2c(Cl)c(N(S(=O)(=O)c3cccc(Cl)c3C)S(=O)(=O)c3cccc(C)c3Cl)ccc2s1 [compound 991] | 51%
Cc1c(Cl)cccc1S(=O)(=O)Nc1ccc2[nH]ccc2c1 [compound 981] | 40%
Cc1c(Cl)cccc1S(=O)(=O)Nc1ccc2c(c1)nc(C)n2C [compound 976] | 110%
CCOC(=O)Cn1c(C)nc2ccc(NS(=O)(=O)c3cccc(Cl)c3C)cc21 [compound 977] | 61%
CC(=O)N1CCc2cc(NS(=O)(=O)c3cccc(Cl)c3C)ccc21 [compound 984] | 73%
CCOC(=O)c1cc2cc(NS(=O)(=O)c3cccc(Cl)c3C)ccc2[nH]1 [compound 986] | 65%
Cc1nc2cc(NS(=O)(=O)c3cccc(Cl)c3C)ccc2[nH]1 [compound 985] | 61%
Cc1nc2cc(C)c(NS(=O)(=O)c3cc(Cl)ccc3Cl)cc2s1 [compound 999] | 55%
Cc1nc2c(Cl)c(NS(=O)(=O)c3cccc(Cl)c3C)c(Cl)cc2s1 [compound 1017] | 60%
CCCc1ccc(S(=O)(=O)Nc2ccc3[nH]c(C)c(C)c3c2)cc1 [compound 1020] | 64%
CCCc1ccc(S(=O)(=O)Nc2ccc3sc(C)nc3c2Cl)cc1 [compound 994] | 83%
Cc1nc2cc(CN(Cc3ccc4sc(C)nc4c3)S(=O)(=O)c3cccc(Cl)c3C)ccc2s1 [compound 1030] | 61%
COc1ccc2nc(C)sc2c1NS(=O)(=O)c1cccc(Cl)c1C [compound 989] | 45%
CCOC(=O)Cn1c(C)nc2cc(NS(=O)(=O)c3cccc(Cl)c3C)ccc21 [compound 978] | 60%
